Assay results taken from ChEMBL document CHEMBL1201862, “PubChem BioAssay data set” (2004).
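A five-concentration, 48-hour dose response in 96-well plates underlies each endpoint, interpolated linearly between surrounding concentrations. GI50 marks 50% less growth.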 Activity calls are given as the source filed them. Cut-off read from the data, not from the text of the source: active = GI50 up to about 1.1 µM and inactive = higher.

Experiments:
Test in all cases: inhibition of tumour cell growth, NCI panel, 48 h
[1] = test system: A498
[2] = test system: HL-60
[3] = test system: K562
[4] = test system: KM12
[5] = test system: MDA-MB-435
[6] = test system: SR
[7] = test system: 786-0
[8] = test system: A549
[9] = test system: ACHN
[10] = test system: CAKI-1
[11] = test system: CCRF-CEM
[12] = test system: COLO 205
[13] = test system: DU-145
[14] = test system: EKVX
[15] = test system: HCC 2998
[16] = test system: HCT-116
[17] = test system: HOP-62
[18] = test system: HOP-92
[19] = test system: HT-29
[20] = test system: Hs-578T
[21] = test system: IGROV-1
[22] = test system: LOX IMVI
[23] = test system: M14
[24] = test system: MCF7
[25] = test system: MDA-MB-231
[26] = test system: MOLT-4
[27] = test system: Malme-3M
[28] = test system: NCI-H226
[29] = test system: NCI-H23
[30] = test system: NCI-H460
[31] = test system: NCI-H522
[32] = test system: NCI/ADR-RES
[33] = test system: OVCAR-3
[34] = test system: OVCAR-4
[35] = test system: OVCAR-5
[36] = test system: OVCAR-8
[37] = test system: PC-3
[38] = test system: RPMI-8226
[39] = test system: RXF 393
[40] = test system: SF-268
[41] = test system: SF-295
[42] = test system: SF-539
[43] = test system: SK-MEL-28
[44] = test system: SK-MEL-5
[45] = test system: SK-OV-3
[46] = test system: SN12C
[47] = test system: SNB-19
[48] = test system: SNB-75
[49] = test system: SW-620
[50] = test system: T47D
[51] = test system: TK-10
[52] = test system: UACC-257
[53] = test system: UACC-62
[54] = test system: UO-31
[55] = test system: HCT-15
[56] = test system: MDA-N
[57] = test system: SK-MEL-2
[58] = test system: U-251

CNc1ccc(C(=O)CC(O)CCC(C)C2OC(=O)CC(O)CC(=O)CC(O)CC(O)CC(O)CC(O)CC3(O)CC(O)C(C(=O)NCCN4CCCCC4)C(CC(OC4OC(C)C(O)C(N)C4O)\C=C/C=C\C=C/C=C/C=C/C=C\C=C/C2C)O3)cc1 (stereo not drawn)
GI50 [1]: 0.288 µM (active) | GI50 [2]: 3.88 µM (inactive) | GI50 [3]: 2.07 µM (inactive) | GI50 [4]: 1.82 µM (inactive) | GI50 [5]: 1.01 µM (active) | GI50 [6]: 0.272 µM (active)

CCCCN(CCCC)C1=Nc2ccccc2-n2c(nnc2C(=O)OCC)C1
GI50 [7]: 73.1 µM (inactive) | GI50 [8]: 33.9 µM (inactive) | GI50 [9]: 38.3 µM (inactive) | GI50 [10]: 49.9 µM (inactive) | GI50 [11]: 43.5 µM (inactive) | GI50 [12]: 18.5 µM (inactive) | GI50 [13]: 75.3 µM (inactive) | GI50 [14]: 71.9 µM (inactive) | GI50 [15]: 38.8 µM (inactive) | GI50 [16]: 27.4 µM (inactive) | GI50 [2]: 15.6 µM (inactive) | GI50 [17]: 95.1 µM (inactive) | GI50 [18]: 33.6 µM (inactive) | GI50 [19]: 22 µM (inactive) | GI50 [20]: > 100 µM (inactive) | GI50 [21]: 35.9 µM (inactive) | GI50 [3]: 16.5 µM (inactive) | GI50 [4]: 29.4 µM (inactive) | GI50 [22]: 38.8 µM (inactive) | GI50 [23]: 44.3 µM (inactive) | GI50 [24]: 37.2 µM (inactive) | GI50 [25]: 38.1 µM (inactive) | GI50 [5]: 38.5 µM (inactive) | GI50 [26]: 27 µM (inactive) | GI50 [27]: 24.6 µM (inactive) | GI50 [28]: 50.6 µM (inactive) | GI50 [29]: 74.6 µM (inactive) | GI50 [30]: 22.7 µM (inactive) | GI50 [31]: > 100 µM (inactive) | GI50 [32]: 39.2 µM (inactive) | GI50 [33]: 37.2 µM (inactive) | GI50 [34]: 61.8 µM (inactive) | GI50 [35]: > 100 µM (inactive) | GI50 [36]: 69.3 µM (inactive) | GI50 [37]: 17.4 µM (inactive) | GI50 [38]: 26.1 µM (inactive) | GI50 [39]: 24.7 µM (inactive) | GI50 [40]: 50.9 µM (inactive) | GI50 [41]: 44.7 µM (inactive) | GI50 [42]: 44.4 µM (inactive) | GI50 [43]: 82.2 µM (inactive) | GI50 [44]: 15.1 µM (inactive) | GI50 [45]: 68.4 µM (inactive) | GI50 [46]: 51.1 µM (inactive) | GI50 [47]: 91.2 µM (inactive) | GI50 [48]: 33.1 µM (inactive) | GI50 [6]: 19.1 µM (inactive) | GI50 [49]: 58.3 µM (inactive) | GI50 [50]: 10.4 µM (inactive) | GI50 [51]: 38.7 µM (inactive) | GI50 [52]: 17.4 µM (inactive) | GI50 [53]: 47.2 µM (inactive) | GI50 [54]: 31.8 µM (inactive)

c1ccc(-c2nnn3c2NC2=C(CCCC2)C3c2ccccc2)cc1 (stereo not drawn)
GI50 [7]: 16.7 µM (inactive) | GI50 [8]: 12.9 µM (inactive) | GI50 [9]: 1.47 µM (inactive) | GI50 [10]: 18.2 µM (inactive) | GI50 [11]: 12.3 µM (inactive) | GI50 [12]: 16.5 µM (inactive) | GI50 [13]: 17.7 µM (inactive) | GI50 [16]: 12 µM (inactive) | GI50 [55]: 1.54 µM | GI50 [2]: 18.5 µM (inactive) | GI50 [17]: 16.4 µM (inactive) | GI50 [19]: 15.1 µM (inactive) | GI50 [20]: 24.9 µM (inactive) | GI50 [21]: 17.5 µM (inactive) | GI50 [3]: 10.3 µM (inactive) | GI50 [4]: 15.5 µM (inactive) | GI50 [22]: 13.7 µM (inactive) | GI50 [23]: 18.8 µM (inactive) | GI50 [24]: 17.1 µM (inactive) | GI50 [25]: 24.6 µM (inactive) | GI50 [5]: 5.71 µM (inactive) | GI50 [56]: 12.9 µM (inactive) | GI50 [26]: 0.425 µM (active) | GI50 [28]: 27.4 µM (inactive) | GI50 [29]: 25.8 µM (inactive) | GI50 [30]: 23.4 µM (inactive) | GI50 [31]: 5.68 µM (inactive) | GI50 [32]: 21.7 µM (inactive) | GI50 [33]: 18.4 µM (inactive) | GI50 [35]: 16 µM (inactive) | GI50 [36]: 2.06 µM (inactive) | GI50 [37]: 16.9 µM (inactive) | GI50 [38]: 14.9 µM (inactive) | GI50 [39]: 17.1 µM (inactive) | GI50 [40]: 21.3 µM (inactive) | GI50 [41]: 20.7 µM (inactive) | GI50 [42]: 19.1 µM (inactive) | GI50 [57]: 16.2 µM (inactive) | GI50 [44]: 14.2 µM (inactive) | GI50 [45]: 22.1 µM (inactive) | GI50 [46]: 21.1 µM (inactive) | GI50 [47]: 33.8 µM (inactive) | GI50 [6]: 13.5 µM (inactive) | GI50 [49]: 12.5 µM (inactive) | GI50 [50]: 22.5 µM (inactive) | GI50 [58]: 12.5 µM (inactive) | GI50 [52]: 21.2 µM (inactive) | GI50 [53]: 16.4 µM (inactive) | GI50 [54]: 17.1 µM (inactive)
